Molecular target: T1, Transcriptional enhancer factor TEF-1 [209-426] (UniProt P28347)
T1 construct: 209-426
Assay: Surface Plasmon Resonance (SPR) Assay
Experimental: The kinetic and affinity parameters of protein-exemplary compound interactions were evaluated by SPR. hsTEAD1 (209-426) was immobilized onto a CM7 (Series S) sensor chip via the standard amine coupling procedure, at 15° C. Prior to immobilization, the carboxymethylated surface of the chip was activated with 400 mM 1-ethyl-3-(3-dimethylaminopropyl)-carbodiimide and 100 mM N-hydroxysuccinimide for 10 min. hsTEAD1 (209-426) was diluted to 11 μg/mL in 10 mM Bis-Tris at pH 6.5 and immobilized on the activated surface chip for 8 and 10 min, in order to reach 6000 to 9000 response units (RU). The remaining activated carboxymethylated groups were blocked with a 7 min injection of 1 M ethanolamine pH 8.5 after which the surface chip was washed with 0.5% (w/v) sodium dodecyl sulphate and 50 mM glycine. HBS-N, which consists of 10 mM HEPES pH 7.4 and 150 mM NaCl, was used as the background buffer during immobilization. Exemplary compounds were prediluted in DMSO, diluted 1:50 in running buffer (20 mM Tris pH 7.4, 150 mM NaCl, 1 mM DTT, 5 mM MgCl2, 0.1 mM EGTA, 0.05% CHAPS) and injected at ten different concentrations using two-fold dilution series, from 100 μM to 0.2 μM. A DMSO solvent correction (1%-3%) was performed to account for variations in bulk signal and to achieve high-quality data. […]

T1 sequence (P28347 209-426): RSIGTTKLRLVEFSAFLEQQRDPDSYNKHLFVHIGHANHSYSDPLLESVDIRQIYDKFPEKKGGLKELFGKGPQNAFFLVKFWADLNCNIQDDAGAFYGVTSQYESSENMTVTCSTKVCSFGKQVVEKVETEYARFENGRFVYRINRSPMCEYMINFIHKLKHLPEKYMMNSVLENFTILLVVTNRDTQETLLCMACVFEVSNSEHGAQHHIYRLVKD

`Cn1cc2c3cc(C(=O)NCCOCCOCCOCCOCCOc4cccc5c4C(=O)N(C4CCC(=O)NC4=O)C5=O)ccc3n(-c3ccc(C(F)(F)F)cc3)c2n1` (stereo unspecified) [US20250032625, Compound 16] showed a Kd of 3.01 µM.

— BindingDB's records for patent US20250032625 (Merck Patent, 2025)
